Assay results published in ChEMBL document CHEMBL1131934, “The design of non-peptide human bradykinin B2 receptor antagonists employing the benzodiazepine peptidomimetic scaffold” (Bioorg Med Chem Lett, 1999).

Tests used:
B2 bradykinin receptor = biological target: T1, B2 bradykinin receptor (Homo sapiens, UniProt P30411); test: Binding affinity towards human bradykinin B2 receptor (membranes from Cos-7 cells expressing human B2 receptor) using [3H]-BK as radioligand; format: cell membranes
T1 sequence (P30411 whole entry): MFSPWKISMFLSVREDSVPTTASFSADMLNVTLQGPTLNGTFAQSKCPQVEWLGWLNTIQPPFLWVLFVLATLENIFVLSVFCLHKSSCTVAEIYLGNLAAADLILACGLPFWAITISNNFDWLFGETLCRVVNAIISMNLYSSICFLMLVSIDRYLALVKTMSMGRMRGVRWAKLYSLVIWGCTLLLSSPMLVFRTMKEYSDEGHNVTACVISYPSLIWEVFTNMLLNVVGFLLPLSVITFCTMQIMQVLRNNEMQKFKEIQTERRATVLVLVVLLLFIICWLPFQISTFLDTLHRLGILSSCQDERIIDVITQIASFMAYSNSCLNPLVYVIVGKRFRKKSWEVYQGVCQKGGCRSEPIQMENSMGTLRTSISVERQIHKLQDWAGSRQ

[1] = biological target: T2, B2 bradykinin receptor (Homo sapiens) (UniProt P30411); test: Binding affinity towards human bradykinin B2 receptor (membranes from Cos-7 cells expressing human B2 receptor) using [3H]BK as radioligand; format: cell membranes; details: concentration not given here
T2 sequence (whole entry): T1 sequence (P30411 whole entry)

## NC(N)=Nc1cccc(CN2C(=O)[C@H](Cc3ccccc3)N=C(c3ccccc3)c3ccccc32)c1
B2 bradykinin receptor
  Ki: 15.8 µM

## NC(N)=Nc1cccc(CN2C(=O)C(Cc3ccccc3)N=C(c3ccccc3)c3ccccc32)c1 (centres undefined)
B2 bradykinin receptor
  Ki: 8.9 µM

## N=C(N)Nc1cccc(CN2C(=O)[C@@H](Cc3ccccc3)N=C(c3ccccc3)c3ccccc32)c1
B2 bradykinin receptor
  Ki: 11.9 µM

## O=C1Nc2ccccc2C(c2ccccc2)=NC1Cc1ccccc1 (centres undefined)
B2 bradykinin receptor
  Ki: > 100 µM

## NCCCCN1C(=O)C(Cc2ccccc2)N=C(c2ccccc2)c2ccccc21 (centres undefined)
[1]
  inhibition: 26%

## N=C(N)Nc1ccc(N2C(=O)C(Cc3ccccc3)N=C(c3ccccc3)c3ccccc32)cc1 (centres undefined)
B2 bradykinin receptor
  Ki: 9.2 µM

## O=C(O)CN1C(=O)C(Cc2ccccc2)N=C(c2ccccc2)c2ccccc21 (centres undefined)
B2 bradykinin receptor
  Ki: > 100 µM

## N=C(N)NCCCCN1C(=O)C(Cc2ccccc2)N=C(c2ccccc2)c2ccccc21 (centres undefined)
B2 bradykinin receptor
  Ki: 21.3 µM

## Nc1cccc(CN2C(=O)C(Cc3ccccc3)N=C(c3ccccc3)c3ccccc32)c1 (centres undefined)
B2 bradykinin receptor
  Ki: > 100 µM
